23 molecules from ChEMBL document CHEMBL4392845, “Structure-activity relationship study of estrogen receptor down-regulators with a diphenylmethane skeleton” (Bioorg Med Chem, 2019) can be followed below.

Bounds are passed on as bounds.

The target in test [1] is T1, Estrogen receptor (Homo sapiens, UniProt P03372).
T1 sequence (P03372 whole entry): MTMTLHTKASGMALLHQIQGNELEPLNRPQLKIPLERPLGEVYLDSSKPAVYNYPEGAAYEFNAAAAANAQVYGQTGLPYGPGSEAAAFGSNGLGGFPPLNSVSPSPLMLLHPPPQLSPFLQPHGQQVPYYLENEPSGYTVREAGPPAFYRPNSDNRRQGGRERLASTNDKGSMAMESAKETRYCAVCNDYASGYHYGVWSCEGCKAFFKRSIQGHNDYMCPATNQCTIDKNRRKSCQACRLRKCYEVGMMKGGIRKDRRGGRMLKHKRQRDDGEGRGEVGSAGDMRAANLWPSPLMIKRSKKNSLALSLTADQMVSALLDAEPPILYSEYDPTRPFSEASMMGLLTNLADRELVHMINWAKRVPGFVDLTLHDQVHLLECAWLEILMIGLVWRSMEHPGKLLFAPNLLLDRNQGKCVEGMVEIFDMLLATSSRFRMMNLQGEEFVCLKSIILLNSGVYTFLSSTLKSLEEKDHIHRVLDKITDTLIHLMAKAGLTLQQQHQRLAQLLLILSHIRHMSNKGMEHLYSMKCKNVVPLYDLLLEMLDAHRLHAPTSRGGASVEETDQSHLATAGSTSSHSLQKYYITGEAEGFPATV
Description: Binding affinity to GST-tagged human ER alpha ligand-binding domain by TR-FRET assay

For test [2], the target named is T1, Estrogen receptor. This is another data set of the same source.
Description: Antagonist activity at FLAG-tagged ERalpha (unknown origin) expressed in HEK293 cells assessed as reduction in E2-induced ER-alpha-mediated transcriptional activity by luciferase reporter gene assay
In test [3] the target is T1, Estrogen receptor. The source holds these as a separate data set.
Description: (§1) Selective estrogen receptor down-regulator activity at FLAG-tagged ERalpha (unknown origin) expressed in HEK293 cells assessed as induction of ERalpha degradation by luciferase reporter gene assay
Test [4] addresses T1, Estrogen receptor. The experiment in a line: Agonist activity at FLAG-tagged ERalpha (unknown origin) expressed in HEK293 cells assessed as induction of ER-alpha-mediated transcriptional activity by luciferase reporter gene assay. Format: cell-based.
For test [5], the target named is T1, Estrogen receptor. To be noted: hek293.
Description: as §1

A word on the IC50: it is the concentration at which inhibition is half-maximal. Higher therefore signals lower potency. By EC50 is commonly meant the concentration needed to bring the measured effect to its halfway point. As to `CCCC(CCC)(c1ccc(O)c(C)c1)c1ccc(OCCC(C)C)c(C)c1`, the half-inhibitory concentration (IC50) came to 160 nM in test [1] and 1200 nM in test [2]. Besides, the EC50 in test [3] turned out to be 427 nM.

On to `CCCC(CCC)(c1ccc(O)c(C)c1)c1ccc(OCC(=O)N(C)C)c(C)c1`, for which the IC50 was 99 nM in test [1] and 94 nM in test [2]. Besides, the EC50 in test [3] worked out at 204 nM.

On to `CCCC(CCC)(c1ccc(O)c(C)c1)c1ccc(OCC(=O)OCC)c(C)c1`, for which the results for the IC50 in test [1] and in test [2] were 22 nM and 44 nM, respectively. In test [3], the half-maximal effective concentration (EC50) amounted to 93 nM.

`CCC(CC)(c1ccc(O)c(C)c1)c1ccc(O)c(C)c1` came in with a concentration for half-maximal inhibition (IC50) in test [1] of 1.4 nM. Besides, in test [3], it took 28 nM to reach a half-maximal effect (EC50).

On to `CCCC(CCC)(c1ccc(N)c(C)c1)c1ccc(O)c(C)c1`, for which the EC50 in test [4] was 1.3 nM; in test [3], 9 nM. Besides, the results for the IC50 in test [1] and in test [2] were 1.7 nM and 8.1 nM, respectively.

With `CCCC(CCC)(c1ccc(O)cc1)c1ccc(O)cc1`, the half-inhibitory concentration (IC50) in test [1] is 5.9 nM. The molecule also registered an EC50 in test [3] of 65 nM.

`CCCC(CCC)(c1ccc(O)c(CC)c1)c1ccc(O)c(CC)c1`: the IC50 in test [1] was 1280 nM. This molecule gave an EC50 in test [3] of more than 10000 nM.

As to `CCC(=C(c1ccc(O)cc1)c1ccc(O)cc1)c1ccccc1`, the results for the half-inhibitory concentration (IC50) in test [1] and in test [2] were 0.06 nM and 3.3 nM, respectively. For the same molecule, the EC50 in test [3] was determined as 1 nM.

Take `CCCC(CCC)(c1ccc(O)c(C)c1)c1ccc(NC)c(C)c1`: the values for the IC50 in test [1] and in test [2] were 7.5 nM and 207 nM, respectively. This molecule also gave a concentration giving a half-maximal response (EC50) in test [3] of 545 nM.

For `CCCCC(CCCC)(c1ccc(O)cc1)c1ccc(O)cc1`, the half-inhibitory concentration (IC50) in test [1] came out at 100 nM. In test [3], this molecule yielded an EC50 of 606 nM.

For `CCCC(CCC)(c1ccc(O)c(C)c1)c1ccc(OCCN(C)C)c(C)c1`, the IC50 in test [1] came out at 52 nM; in test [2] it was 36 nM. In test [5], the half-maximal effective concentration (EC50) entry is “Not Active”.

Take `CCCC(CCC)(c1ccc(O)c(C)c1)c1ccc(N(C)C)c(C)c1`: the EC50 in test [4] came out at 20 nM; in test [3] it was 80 nM. Further, the IC50 in test [1] stood at 77 nM; in test [2], 213 nM.

Consider `CCCC(CCC)(c1ccc(O)c(C)c1)c1ccc(OCC(=O)OC(C)C)c(C)c1`, for which the values for the 50% inhibitory concentration (IC50) in test [1] and in test [2] were 90 nM and 99 nM, respectively. In test [3], this molecule had an EC50 of 116 nM.

The molecule `CCCCC(CCCC)(c1ccc(O)c(C)c1)c1ccc(O)c(C)c1` displayed a half-maximal inhibitory concentration (IC50) in test [1] of 26 nM. Besides, the EC50 in test [3] was found to be 88 nM.

Regarding `CCCC(CCC)(c1ccc(O)c(C)c1)c1ccc(OCC(=O)NC)c(C)c1`, the IC50 in test [1] was found to be 43 nM; in test [2] it was 31 nM. This molecule had an EC50 in test [3] of 104 nM.

The molecule `CCc1cc(C(CC)(CC)c2ccc(O)c(CC)c2)ccc1O` had an IC50 in test [1] of 280 nM. The EC50 in test [3] stood at 729 nM.

For `Oc1ccc(Cc2ccc(O)cc2)cc1`, the IC50 in test [1] was 1430 nM; in test [2], more than 10000 nM. In test [3], this molecule returned an EC50 of more than 10000 nM.

Regarding `CCCC(CCC)(c1ccc(O)c(C)c1)c1ccc(NC(C)=O)c(C)c1`, the IC50 worked out at 354 nM in test [1] and 213 nM in test [2]. In test [3], this molecule gave an EC50 of more than 10000 nM.

For the molecule `CCCC(CCC)(c1ccc(O)c(C)c1)c1ccc(/C=C/C(=O)OCC)c(C)c1`, the values for the IC50 in test [1] and in test [2] were 303 nM and 561 nM, respectively. The half-maximal effective concentration (EC50) in test [3] came out at 193 nM.

As to `CCCC(CCC)(c1ccc(O)c(C)c1)c1ccc(/C=C/C(=O)O)c(C)c1`, the IC50 turned out to be 37 nM in test [1] and 522 nM in test [2]. Further, the EC50 in test [3] is 437 nM.

As to `CCCC(CCC)(c1ccc(O)c(C)c1)c1ccc(O)c(C)c1`, the concentration for half-maximal inhibition (IC50) in test [1] lay within 1.3 to 3.2 nM. The molecule also showed an EC50 in test [3] of 10 nM.

As to `Cc1cc(Cc2ccc(O)c(C)c2)ccc1O`, the 50% effective concentration (EC50) in test [4] and in test [3] was more than 10000 nM each time. The half-maximal inhibitory concentration (IC50) is 790 nM in test [1] and more than 10000 nM in test [2].

In test [1], `CCC(CC)(c1ccc(O)cc1)c1ccc(O)cc1` had a 50% inhibitory concentration (IC50) of 24 nM. This molecule returned an EC50 in test [3] of 181 nM.
